The results in this text go back to US10301295B2, “Herbicidal compounds” (Syngenta Participations AG, priority 2014, dated 2019).

Common to all, as to format: in vivo
One assay concerns wheat. Put plainly: Post-emergence herbicidal activity against cereal crops (wheat) +/- safener, crop selectivity. As to conditions: 100%=total damage to plant, 0%=no damage; for Post-emergence herbicidal activity against wheat (percentage phytotoxicity), +CQC: 250 g/ha, plus safener cloquintocet-mexyl (CQC) applied at 50 g/ha; for percent phytotoxicity (crop damage) to wheat at 250 g/ha: Triticum aestivum, 360 h, without safener, read-out: Post-emergence herbicidal activity against wheat (percentage phytotoxicity), Wheat - CQC. The method, then: Seeds of a variety of monocotyledonous and dicotyledonous test plants are sown in standard soil in pots. The plants are cultivated for one day (for pre-emergence) or for about 12 days (for post-emergence) under controlled conditions in a glasshouse (warm climate species at 24/18° C., cool climate species at 20/16° C., both at day/night; 16 hours light; 65% humidity). The test plants are then grown on, in a glasshouse (greenhouse) under controlled conditions (warm climate species at 24/18° C., cool climate species at 20/16° C., both at day/night; 16 hours light; 65% humidity) and are watered twice daily. 15 days after application of the test herbicide (15DAA) (for post-emergence), and 20 days after application of the test herbicide (20DAA) (for pre-emergence), the test plants are evaluated visually, and an assessed percentage phytotoxicity score is given for each herbicidal application on each plant species (with 100%=total damage to plant; 0%=no damage to plant).

Assay [1] deals with Echinochloa crus-galli (ECHCG). Put plainly: Glasshouse assay for herbicidal activity, pre-/post-emergence (percentage phytotoxicity). As to conditions: Echinochloa crus-galli, Rate 250 g/ha, 100%=total damage, 0%=no damage. The essentials:
(§1)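 Seeds sown in standard soil in pots, grown 1 day (pre-emergence) or ~12 days (post-emergence) before treatment. Glasshouse: warm species 24/18 °C, cool species 20/16 °C day/night, 16 h light, 65% humidity, watered twice daily. Visual phytotoxicity scored 15DAA (post) or 20DAA (pre); 0% none, 100% total damage.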

In a further assay the test system is Lolium perenne (LOLPE). Described as above. As to conditions: Rate 250 g/ha, 100%=total damage, 0%=no damage; for pest or weed control at 250 g/ha: Lolium perenne. The gist of the method:
as §1

The subject of assay [2] is Alopecurus myosuroides (ALOMY). The description is as above. As to conditions: Rate 250 g/ha, 100%=total damage, 0%=no damage; for pest or weed control at 250 g/ha: Alopecurus myosuroides. The essentials:
as §1

A further assay concerns Avena fatua (AVEFA). Described as above. Conditions: Rate 250 g/ha, 100%=total damage, 0%=no damage; for pest or weed control at 250 g/ha: Avena fatua. The gist of the method:
as §1

[3] abbreviates: post-emergence, 360 h, post-emergence, visual assessment 15 DAA, read-out: Post-emergence herbicidal activity (percentage phytotoxicity), ECHCG POST.
[4] abbreviates: pre-emergence, 480 h, pre-emergence, visual assessment 20 DAA, read-out: Pre-emergence herbicidal activity (percentage phytotoxicity), ECHCG PRE.
Setting [5] is: post-emergence, 360 h, post-emergence, visual assessment 15 DAA, read-out: Post-emergence herbicidal activity (percentage phytotoxicity), LOLPE POST.
Setting [6] is: pre-emergence, 480 h, pre-emergence, visual assessment 20 DAA, read-out: Pre-emergence herbicidal activity (percentage phytotoxicity), LOLPE PRE.
Setting [7] is: 360 h, post-emergence, visual assessment 15 DAA, read-out: Post-emergence herbicidal activity (percentage phytotoxicity), ALOMY POST.
Where [8] appears, read: 480 h, pre-emergence, visual assessment 20 DAA, read-out: Pre-emergence herbicidal activity (percentage phytotoxicity), ALOMY PRE.
The mark [9] stands for this setting: post-emergence, 360 h, post-emergence, visual assessment 15 DAA, read-out: Post-emergence herbicidal activity (percentage phytotoxicity), AVEFA POST.
The mark [10] stands for this setting: pre-emergence, 480 h, pre-emergence, visual assessment 20 DAA, read-out: Pre-emergence herbicidal activity (percentage phytotoxicity), AVEFA PRE.
The mark [11] stands for this setting: post-emergence, visual assessment 15 DAA.
Setting [12] is: pre-emergence, visual assessment 20 DAA.

Like-named read-outs stand apart in the source and are kept apart here.

For `Cc1cc(C)c(C2C(=O)CC(CCNS(=O)(=O)c3ccc(Cl)cc3Cl)C2=O)c(C)c1` (centres unmarked) [Compound A84], in the assay with wheat, the “Post-emergence herbicidal activity against wheat (percentage phytotoxicity), +CQC” value worked out at 0%. In addition, in the assay with wheat, the percent phytotoxicity (crop damage) to wheat at 250 g/ha was 0%. Moreover, the pest or weed control at 250 g/ha in assay [1] (setting [3]) was 50%; in assay [1] (setting [4]) it was 30%; in the assay on Lolium perenne (LOLPE) (setting [5]), 70%; in the assay with Lolium perenne (LOLPE) (setting [6]), 50%; in assay [2] (setting [7]), 30%; in assay [2] (setting [8]), 50%. In addition, the pest or weed control at 250 g/ha in the assay with Avena fatua (AVEFA) (setting [9]) is 80%; with Avena fatua (AVEFA) (setting [10]), 10%.
Consider `Cc1cc(C)c(C2C(=O)CC(CCNC(=O)NC(=O)c3ccccc3)C2=O)c(C)c1` (centres unmarked) [Compound A46], for which the “Post-emergence herbicidal activity against wheat (percentage phytotoxicity), +CQC” value in the assay with wheat was 70%. In the assay with wheat, the percent phytotoxicity (crop damage) to wheat at 250 g/ha is 80%. Besides, the pest or weed control at 250 g/ha was determined as 100% in assay [1] (setting [3]); 60% in assay [1] (setting [4]); 100% in the assay on Lolium perenne (LOLPE) (setting [5]); 70% in the assay with Lolium perenne (LOLPE) (setting [6]); 70% in assay [2] (setting [7]); 30% in assay [2] (setting [8]). The figures for the pest or weed control at 250 g/ha with Avena fatua (AVEFA) (setting [9]) and with Avena fatua (AVEFA) (setting [10]) were 90% and 30%, respectively.
Consider `Cc1cc(C)c(C2C(=O)CC(CCNC(=S)Nc3ccc(F)cc3)C2=O)c(C)c1` (centres unmarked) [Compound A89], for which the “Post-emergence herbicidal activity against wheat (percentage phytotoxicity), +CQC” value in the assay with wheat is given as 0%. Moreover, in the assay on wheat, the percent phytotoxicity (crop damage) to wheat at 250 g/ha came out at 10%. Also, the pest or weed control at 250 g/ha in assay [1] (setting [3]) was determined as 0%; in assay [1] (setting [4]), 30%; with Lolium perenne (LOLPE) (setting [5]), 0%; in the assay on Lolium perenne (LOLPE) (setting [6]), 40%; in assay [2] (setting [7]), 0%; in assay [2] (setting [8]) it was 0%. In addition, the pest or weed control at 250 g/ha is 40% in the assay on Avena fatua (AVEFA) (setting [9]) and 0% in the assay on Avena fatua (AVEFA) (setting [10]).
Turning to `CON=C(C#N)C(=O)NCCC1CC(=O)C(c2c(C)cc(-n3cc(Cl)cn3)cc2C)C1=O` (centres unmarked) [Compound A42], the “Post-emergence herbicidal activity against wheat (percentage phytotoxicity), +CQC” value with wheat worked out at 10%. The percent phytotoxicity (crop damage) to wheat at 250 g/ha with wheat is 0%. Also, the pest or weed control at 250 g/ha in assay [1] (setting [3]) stood at 70%; in assay [1] (setting [4]), 0%; with Lolium perenne (LOLPE) (setting [5]) it was 10%; in the assay on Lolium perenne (LOLPE) (setting [6]) it was 0%; in assay [2] (setting [7]), 0%; in assay [2] (setting [8]), 0%. For the same compound, the pest or weed control at 250 g/ha in the assay on Avena fatua (AVEFA) (setting [9]) and with Avena fatua (AVEFA) (setting [10]) was 0% throughout.
Consider `COc1ccc(S(=O)(=O)NCCC2CC(=O)C(c3c(C)cc(C)cc3C)C2=O)cc1` (centres unmarked) [Compound A79], for which the “Post-emergence herbicidal activity against wheat (percentage phytotoxicity), +CQC” value in the assay with wheat was 0%. In the assay with wheat, the percent phytotoxicity (crop damage) to wheat at 250 g/ha was found to be 30%. The pest or weed control at 250 g/ha in assay [1] (setting [3]) turned out to be 40%; in assay [1] (setting [4]), 50%; in the assay with Lolium perenne (LOLPE) (setting [5]) it was 60%; in the assay on Lolium perenne (LOLPE) (setting [6]), 70%; in assay [2] (setting [7]), 30%; in assay [2] (setting [8]) it was 30%. For the same compound, the pest or weed control at 250 g/ha in the assay on Avena fatua (AVEFA) (setting [9]) was 60%; in the assay with Avena fatua (AVEFA) (setting [10]), 10%.
In the case of `CC#Cc1cc(C)c(C2C(=O)CC(CCNC(=O)Nc3ccccn3)C2=O)c(C)c1` (centres unmarked) [Compound A92], the pest or weed control at 250 g/ha in assay [1] (setting [3]) is 100%; in assay [1] (setting [4]), 80%; in the assay with Lolium perenne (LOLPE) (setting [5]), 100%; with Lolium perenne (LOLPE) (setting [6]), 70%; in assay [2] (setting [7]), 90%; in assay [2] (setting [8]), 70%. For the same compound, the pest or weed control at 250 g/ha was found to be 100% with Avena fatua (AVEFA) (setting [9]) and 30% in the assay with Avena fatua (AVEFA) (setting [10]).
In the case of `Cc1cc(C)c(C2C(=O)CC(CCNC(=O)Nc3ccncn3)C2=O)c(C)c1` (centres unmarked) [Compound A95], the pest or weed control at 250 g/ha in assay [1] (setting [3]) came to 70%; in assay [1] (setting [4]), 70%; with Lolium perenne (LOLPE) (setting [5]), 60%; in the assay with Lolium perenne (LOLPE) (setting [6]), 70%; in assay [2] (setting [7]), 70%; in assay [2] (setting [8]), 80%. Besides, the figures for the pest or weed control at 250 g/ha with Avena fatua (AVEFA) (setting [9]) and in the assay with Avena fatua (AVEFA) (setting [10]) were 70% and 20%, respectively.
On to `Cc1cc(-c2ncc(Cl)cn2)cc(C)c1C1C(=O)CC(CCNC(=O)C2=NOC(C)(C)C2)C1=O` (centres unmarked) [Compound A118], for which the pest or weed control at 250 g/ha worked out at 100% in assay [1] (setting [3]); 90% in assay [1] (setting [4]); 100% in the assay on Lolium perenne (LOLPE) (setting [5]); 90% with Lolium perenne (LOLPE) (setting [6]); 100% in assay [2] (setting [7]); 100% in assay [2] (setting [8]). For the same compound, the pest or weed control at 250 g/ha in the assay on Avena fatua (AVEFA) (setting [9]) worked out at 100%; in the assay on Avena fatua (AVEFA) (setting [10]) it was 90%.
As to `Cc1cc(-n2cc(Cl)cn2)cc(C)c1C1C(=O)CC(CCNc2ncc(C(F)(F)F)cc2F)C1=O` (centres unmarked) [Compound A98], the pest or weed control at 250 g/ha in assay [1] (setting [3]) is 100%; in assay [1] (setting [4]), 90%; in the assay with Lolium perenne (LOLPE) (setting [5]), 90%; with Lolium perenne (LOLPE) (setting [6]) it was 90%; in assay [2] (setting [7]), 90%; in assay [2] (setting [8]) it was 40%. The pest or weed control at 250 g/ha in the assay with Avena fatua (AVEFA) (setting [9]) worked out at 100%; in the assay with Avena fatua (AVEFA) (setting [10]) it was 70%.
Take `CC#Cc1cc(C)c(C2C(=O)CC(CCNc3ccc(C(F)(F)F)cn3)C2=O)c(C)c1` (centres unmarked) [Compound A113]: the pest or weed control at 250 g/ha in assay [1] (setting [3]) is 100%; in assay [1] (setting [4]) it was 90%; in the assay with Lolium perenne (LOLPE) (setting [5]), 100%; in the assay with Lolium perenne (LOLPE) (setting [6]), 90%; in assay [2] (setting [7]), 100%; in assay [2] (setting [8]), 90%. Besides, the pest or weed control at 250 g/ha in the assay on Avena fatua (AVEFA) (setting [9]) turned out to be 100%; in the assay on Avena fatua (AVEFA) (setting [10]), 70%.
Turning to `Cc1cc(C)c(C2C(=O)CC(CCN(C)C(=O)Nc3ccccn3)C2=O)c(C)c1` (centres unmarked) [Compound A17], in the assay with wheat, the “Post-emergence herbicidal activity against wheat (percentage phytotoxicity), +CQC” value is reported as 10% and the percent phytotoxicity (crop damage) to wheat at 250 g/ha was 50%. For the same compound, the “Post-emergence herbicidal activity (percentage phytotoxicity), LOLPE POST” value in the assay with Lolium perenne (LOLPE) (setting [11]) is given as 40%. The “Pre-emergence herbicidal activity (percentage phytotoxicity), LOLPE PRE” value with Lolium perenne (LOLPE) (setting [12]) is recorded as 30%. In addition, the “Post-emergence herbicidal activity (percentage phytotoxicity), ALOMY POST” value in assay [2] (setting [11]) is 70%. In addition, the “Pre-emergence herbicidal activity (percentage phytotoxicity), AVEFA PRE” value in the assay on Avena fatua (AVEFA) (setting [12]) amounted to 0%.
As to `Cc1cc(-c2ccc(F)cc2)cc(C)c1C1C(=O)CC(CCNC(=O)C2=NOC(C)(C)C2)C1=O` (centres unmarked) [Compound A109], the pest or weed control at 250 g/ha in assay [1] (setting [3]) came out at 100%; in assay [1] (setting [4]), 90%; with Lolium perenne (LOLPE) (setting [5]), 100%; in the assay on Lolium perenne (LOLPE) (setting [6]) it was 90%; in assay [2] (setting [7]), 100%; in assay [2] (setting [8]) it was 90%. Moreover, the pest or weed control at 250 g/ha is 100% with Avena fatua (AVEFA) (setting [9]) and 90% in the assay with Avena fatua (AVEFA) (setting [10]).
